According to patent US20260345609A1, “METHODS FOR PROMOTING PERSISTENCE OF CELL THERAPY” (Legend Biotech Ireland Limited, priority 2022, published 2026):

What was measured:
LUCAR-20SD cells = test: In vitro mixed lymphoid (MLR) model with LUCAR-20SD cells, UnT and Raji cells: graft LUCAR-20SD cells; type: cell-based, human; conditions: 0.05 μM, 1 μM, 2 μM MTX
Experimental: (§1) To evaluate the ability of LUCAR-20SD cells to tolerate allogeneic T cell rejection, an in vitro mixed lymphoid (MLR) model was established.
(§2) Using the T cells from a random healthy donor (B donor), LUCAR-20SD cells were prepared following the method in Example 1, as the graft cells. Un-transduced T cells (UnT) from another random healthy donor (Adonor) were also prepared, as the host cells.
(§3) The cell density of CD20 positive cells (lymphoma cell lines Raji, ATCC, CCL-86) was adjusted to 1×10^6 cells/mL. Raji cells were treated with 20 μg/mL mitomycin at 37° C. for 3 h, washed three times with 10 mL DPBS, and were resuspended in the culture medium. 20×10^6 untransduced T cells (UnT, T cell donor A), 1×10^6 LUCAR-20SD cells (T cell donor B), and 5×10^6 treated lymphoma cells Raji were mixed and cultured in the medium. The cell mixture was divided into 4 groups, and 0 μM MTX, 0.05 μM MTX, 1 μM MTX, or 2 μM MTX was added, respectively. […] According to the formula: fold change of cell number (UnT)=[cell number counted by AOPI×(CAR-CD5+%)]/20, fold change of cell number (LUCAR-20SD cells)=[cell number counted by AOPI×(CAR+CD5+%)]/1, the cell proliferation curves of UnT and LUCAR-20SD cells were plotted.

[1] = tested on: untransduced T cells (UnT); test: In vitro mixed lymphoid (MLR) model with LUCAR-20SD cells, UnT and Raji cells: host UnT cells; type: cell-based, human; conditions: 0.05 μM, 1 μM, 2 μM MTX
Experimental: as §1, §2, §3

## CN(Cc1cnc2nc(N)nc(N)c2n1)c1ccc(C(=O)N[C@@H](CCC(=O)O)C(=O)O)cc1 [MTX, methotrexate]
LUCAR-20SD cells
  protective effect on heterologous LUCAR-20SD cells: good protective effect on heterologous LUCAR-20SD cells
[1]; day 1 to day 13
  fold change of cell number (UnT): less than 1
[1]; mixed culture with LUCAR-20SD and Raji cells
  proliferation of UnT cells: significantly inhibited
